Consider 1 substance from patent publication US20260227379A1, “DEVICES AND METHODS FOR CLOT BURST PRESSURE MEASUREMENT” (THE BOARD OF REGENTS OF THE UNIVERSITY OF TEXAS SYSTEM, priority 2023, published 2026).

The subject of experiment [1] is whole blood (WB) clot. As to the kind of experiment: Clot burst pressure (CBP) assay on conditioned whole blood. It counts as cell-based. The conditions noted are these: for CBP normalized to individual donor baseline (times as strong): recalcified 6 mM CaCl2, 37 C 30 min. The method, then: An exemplary embodiment of the present disclosure was used to obtain test data as follows. Blood from donors (n=7) was collected into 3.2% sodium citrate tubes. Blood was divided and treated to achieve the following conditions for a hypocoagulable state: 0.10, 0.15, and 0.20 USP heparin/mL blood; for a hypercoagulable state, blood was treated with a 1.0 or 2.0 g/L addition of fibrinogen. 2 mm holes were drilled into 6-well polystyrene plates and packing tape was used to cover the bottom. Blood was recalcified with CaCl2 and pipetted into the holes. The plates were incubated at 37 C for 30 minutes to allow for thrombus formation. Tape was removed after incubation. A pressure cap was designed with an inlet for fluid from a syringe pump and an outlet for outflow and was secured in the wells with a watertight seal. Outflow led to a vertical graduated measurement column where pressure was converted from cmH2O to mmHg for data analysis.
The device comprises four primary components as shown in FIG. 1: a syringe pump, a pressure cap, a 6-well plate assembly, and a water column. A Programmable Syringe Pump was programmed to pump a 100 cc syringe at 1 mL/s at a continuous rate. The syringe pump is coupled to a pressure cap assembly.
The pressure cap assembly shown in FIGS. 2 and 3 directs fluid flow directly over a clot and prevents pressure loss to the environment. The cap has two female ports allowing for an inlet connection from the syringe pump and an outlet connecting to the water column. The cap has three legs to avoid direct contact with a clot. An O-Ring (Dash 242) fits in the groove found around the pressure cap ensuring a snug fit in a standard 6-well plate. As fluid enters the pressure cap, it is directed into a compartment where a formed clot is suspended. Backflow fluid rises up a 150 cm water column created from clear PVC pipe marked at 5 cm intervals. All connections used Luer locks and barbed connections to prevent fluid loss.
A 20″×20″ HDPE board was used as the base of the device, which contained the 6-well plate assembly and water column. 4, 2″ screws were used to elevate the 6-well plate assembly to allow for easy visual inspection after trial runs. A single 5/64″ hole was drilled into the centers of each well in a 6-well plate. 220-grit sandpaper was used in a circular manner on the inner surface of the well-plate to provide a sheared surface for platelet adhesion. Clear packing tape was used to cover the holes on the bottom of the plate prior to the start of the assay.
Venipuncture whole blood (WB) was collected from donors (male and female) who were at least 18 years of age and had not taken anticoagulant medication in the past 14 days. Blood was drawn from the antecubital fossa using a 19G needle into a standard blue top 3.2% sodium citrate vacutainer tube. Tubes were placed on a rocker at room temperature prior to use in the assay, but all assay runs were initiated within 30 minutes of blood draw.
WB was conditioned to mimic hyper and hypocoagulable states. RiaSTAP a lyophilized fibrinogen concentrate, was used to generate a hypercoagulable condition. WB was conditioned with a 1.0 mg/mL or 2.0 mg/mL bolus of fibrinogen. Heparin sodium salt (Sigma-Aldrich, OH) was reconstituted and added to WB at 0.10, 0.15, 0.20 USP/mL amounts to generate a hypocoagulable state. 6 mM of CaCl2) was added to each conditioned blood group and a control group to recalcify and promote coagulation.
35 μL of conditioned or control WB was placed in the 5/64″ hole above the packing tape in each well of the 6-well plates. The entire plate was incubated at 37 C for 30 min with the plate lid on. After 30 min, the plate was removed from the incubator and the packing tape on the bottom was removed. The pressure cap was placed in a single well in a spiral manner and an air-tight seal was created with the O-Ring. One port of the pressure cap was connected to the syringe pump and the other port to the vertical water column. […]

The subject of experiment [2] is whole blood (WB) clot. The experiment is described as above. It counts as cell-based.
Setting [3] is: Whole Blood w/ Heparin 0.10 USP/mL.
The mark [4] stands for this setting: Whole Blood w/ Heparin 0.15 USP/mL.
The mark [5] stands for this setting: Whole Blood w/ Heparin 0.20 USP/mL.

For the substance Heparin sodium salt, the “Clot Integrity” value is on record as “Weakened Clot” with whole blood (WB) clot [1] (setting [3]); “Weakened Clot” in the experiment on whole blood (WB) clot [1] (setting [4]); “Weakened Clot” in the experiment on whole blood (WB) clot [1] (setting [5]); “Porous Clot” in the experiment with whole blood (WB) clot [2] (Whole Blood w/ Heparin 0.25 USP/mL); “completely inhibits clot production” with whole blood (WB) clot [2] (Whole Blood w/ Heparin 0.35 USP/mL, listed as heparin, sodium salt); “No Clot Formation” with whole blood (WB) clot [2] (Whole Blood w/ Heparin 0.35 USP/mL, sodium salt). In addition, the “Difference Between All Groups in CBP” value in the experiment with whole blood (WB) clot [1] (setting [3]), in the experiment on whole blood (WB) clot [1] (setting [4]) and in the experiment on whole blood (WB) clot [1] (setting [5]) was “Yes” in each case. For the same substance, the “Dose dependence of clot strength (CBP)” value with whole blood (WB) clot [1] (between the 0.10 and 0.20 USP heparin/mL group, whole blood) was “dose-dependent weakness”. The Clot formation entry in the experiment on whole blood (WB) clot [1] (heparin 0.20-0.10 USP/mL range in whole blood) is recorded as “weaker, but stable clot”. Also, the entries for the “CBP normalized to individual donor baseline (times as strong)” value with whole blood (WB) clot [1] (whole blood + 0.10 USP heparin/mL), with whole blood (WB) clot [1] (whole blood + 0.15 USP heparin/mL) and in the experiment with whole blood (WB) clot [1] (whole blood + 0.20 USP heparin/mL) were 0.54±0.19, 0.41±0.17 and 0.25±0.02, respectively.
